Measurements as given in patent EP0415456A2, “Xanthine compounds” (priority 1989, dated 1991).
Where two headings read alike, the source gives them in different places.

Columns and labels:
[1] = test system: zig-zag strips of the trachea; test: effects on passive Schultz-Dale reaction (antigen-induced contraction of sensitized trachea strips); design: species or system guinea pigs; settings: Cavia porcellus, read-out: Passive S-D Reaction IC₅₀
Procedure: After 24 hours, the guinea pigs were stunned and exsanguinated, and then trachea were removed. The zig-zag strips of the trachea were prepared by the method of Emmerson, et al. [J. Pharm. […] The strips were suspended in Krebs-Henseleit solution at 37°C […] Antigen (EWA) was then introduced in the solution (final concentration; 1μg/ml), and the contraction was measured by […] After the contraction reached stable plateau, the compounds were cumulatively added in order to get concentration-relaxation curves. […]

[2] = test system: death induced by Platelet-Activating Factor (PAF); test: effect of inhibiting death induced by Platelet-Activating Factor (PAF); format: in vivo; settings: Mus musculus; oral, dd strain mice, 40 µg/kg PAF i.v. 1 hour after administration; highest dose 100 mg/kg; read-out: MED (mg/kg) for Inhibiting Death Induced by PAF
Procedure: A test compound (100 mg/kg) was orally administered to dd strain mice (male animals, 28 to 32g) and 40 µg/kg of PAF (manufactured by Avanti Polar Lipids Co.) was administered via tail veins 1 hour after the administration according to the method of Carlson et al. [Agents and Actions, 21, 379 (1987)]. The mortality rates of compound-treated groups were compared with those of matched control groups, assessed during the same experimental session, by the Fisher's exact probability test. The cases wherein the level of significance (p value) is 0.05 or less are considered to be effective with respect to the inhibition. The above procedure was repeated, using the test compound in a decreasingly small quantity so as to find out the Minimum Effective Dosage (MED) wherein […] be observed between the test and control groups.

[3] = test system: glycerol-induced renal failure model; test: renal-protecting effect (glycerol-induced renal failure model); format: in vivo; settings: male Wistar rats; for suppression of increases of the serum creatinine and of urine-nitrogen: 0.01 - 10 mg/kg i.p., 24 hours after 50% glycerol s.c. (p < 0.05); for pathological examination of removed kidneys: state of kidneys: i.p., left kidney removed 24 hours after 50% glycerol s.c.
Procedure: A renal failure is a state wherein the renal function is lowered and the homeostasis of a body fluid can be no more maintained. It is known that an acute renal failure characteristic of uriniferous tubule disorder is caused by subcutaneous or intramuscular injection of glycerol to rats [Can. J. Physiol.
Male Wistar rats were kept deprived or water for 18 hours, and served for the test. A test compound was intraperitoneally administered to the rats (dosage: 1 mℓ/kg) and the rats were anesthetized with ether and 50% glycerol was subcutaneously administered (dosage: 0.8mℓ/100g) to the rats, pinching the dorsal skin. Twenty four hours after the administration of glycerol, the rats were anesthetized with ether and 5 mℓ of blood were collected from the abdominal aorta. The collected blood was allowed to stand for 30 minutes or longer and then centrifuged at 3,000 rpm for 10 minutes, and the amounts of the serum creatinine and urine-nitrogen (UN) contained in the serum were determined by auto analyzer (Olympus AU510) or measured by a creatinine test Wako (Jaffé method) and UN Test Wako (diacetylmonooxime direct method). Both are manufactured by Wako Pure Chemicals Co.
On the other hand, the left kidneys of the blood-sampled rats were removed and placed in formalin-filled vial bottles, and used as samples for the pathological examination.

[4] = test system: Wistar rats; test: diuretic effect; format: in vivo; settings: 25 mg/kg oral, urine collected for 6 hours
Procedure: Wistar rats (male: 150 - 300 g) were starved for 18 hours prior to the administration of the test compounds. […] Urine was collected for 6 hours after the administration. Urine volume was measured and the electrolytes (Na+ and K+) in the urine were determined with a flame photome[…], Hitachi Ltd., Japan). All parameters are expressed as relative values of control.

[5] = concentration to produce 50% relaxation of EWA (1µg/mℓ)-contracted trachea strips of passively sensitized guinea pigs

CCCn1c(=O)c2[nH]c(C(C)Cc3ccncc3)nc2n(CCC)c1=O (centres unmarked) [Compound 7, 8-[1-methyl-2-(4-pyridyl)ethyl]-1,3-dipropylxanthine]
IC50 [1, 5]: 2700 nM
minimal effective dose [2]: > 100 mg/kg
suppression of increases of the serum creatinine and of urine-nitrogen [3]: significantly suppressed
pathological examination of removed kidneys: state of kidneys [3]: significantly improved

CCCn1c(=O)c2[nH]c(C(C)Cc3csc(C)n3)nc2n(CCC)c1=O (centres unmarked) [Compound 8, 8-[1-Methyl-2-(2-methylthiazol-4-yl)ethyl]-1,3-dipropylxanthine]
IC50 [1, 5]: 880 nM
minimal effective dose [2]: 100 mg/kg
suppression of increases of the serum creatinine and of urine-nitrogen [3]: significantly suppressed
pathological examination of removed kidneys: state of kidneys [3]: significantly improved
Increase in K⁺ excretion (%) ([4]; relative to control): 22%
Increase in Na⁺excretion (%) ([4]; relative to control): 138%
Increase in Urine (%) ([4]; relative to control): 82%
Na⁺/K⁺ ([4]; relative value of control (control 1.00)): 1.95

Cn1c(=O)c2[nH]cnc2n(C)c1=O [Theophylline, 1,3-dimethylxanthine, reference compound]
IC50 [1]: 23000 nM
minimal effective dose [2]: 100 mg/kg
